How the values were obtained:
Test in all cases: Test on herbicidal effects against weeds and phytotoxicity by foliage treatment in upland field
Details in all cases: 25 gai/ha, 21st day
[1] = system: greenfoxtail (SETVI); type: in vivo, Setaria viridis
Protocol: (§1) In a plastic pot of 11 cm in length×11 cm in width×11 cm in depth, the upland soil was filled, and seeds of corn (ZEAMX), soybean (GLXMA), greenfoxtail (SETVI), shattercane (SORVU), redroot pigweed (AMARE), Ipomoea lacunosa L. (IPOLA) and velvetleaf (ABUTH) were sown and covered with soil.
(§2) Then, cultivation was carried out in a greenhouse for 10 days. Then, a wettable powder prepared in accordance with Formulation Example 1 was weighed so that active ingredients would be the prescribed amounts, diluted with water and uniformly applied on the soil surface by means of a small size spray at a rate of 500 liter per 1 hectare. Thereafter, cultivation was carried out in a greenhouse, and on the 21st day after the treatment, the herbicidal effects and phytotoxicity were examined in accordance with the standards as identified in Table 15.

[2] = system: redroot pigweed (AMARE); type: in vivo, Amaranthus retroflexus L.
Protocol: as §1, §2

[3] = system: shattercane (SORVU); type: in vivo, Sorghum vulgare
Protocol: as §1, §2

[4] = system: corn (ZEAMX); type: in vivo
Protocol: as §1
as §2, with “diluted with water and uniformly applied on the soil surface by means of a small size” left out

[5] = system: soybean (GLXMA); type: in vivo
Protocol: as §1
as §2, with “diluted with water and uniformly applied on the soil surface by means of a small size” left out

[6] = system: velvetleaf (ABUTH); type: in vivo, Abutilon theophrasti
Protocol: as §1, §2

[7] = system: Ipomoea lacunosa L. (IPOLA); type: in vivo
Protocol: as §1, §2

Which “herbicidal effect SETVI” value [1] does the source give for `COCc1cccc(C(O)c2nc(OC)cc(OC)n2)c1NS(=O)(=O)C(F)F` (stereo not shown) [Pyrimisulfan] here?
Its value is 6 (Herbicidal effect or phytotoxicity of at least 60% and less than 70%).

What about the “herbicidal effect AMARE” value [2] of the same molecule?
The value was 10 (Herbicidal effect or phytotoxicity of 100%).

What about the “herbicidal effect SORVU” value [3] of the same molecule?
Its value is 8 (Herbicidal effect or phytotoxicity of at least 80% and less than 90%).

And the “phytotoxicity ZEAMX” value [4]?
Its value is 2 (Herbicidal effect or phytotoxicity of at least 20% and less than 30%).

What about the “phytotoxicity GLXMA” value [5] of the same molecule?
The value was 2 (Herbicidal effect or phytotoxicity of at least 20% and less than 30%).

What about the “herbicidal effect ABUTH” value [6] of the same molecule?
Its value is 10 (Herbicidal effect or phytotoxicity of 100%).

And the “herbicidal effect IPOLA” value [7]?
Its value is 9 (Herbicidal effect or phytotoxicity of at least 90% and less than 100%).

— patent US8283291B2, “Herbicidal composition” (Kumiai Chemical Industry Co., Ltd., priority 2006, dated 2012)
